Test results: US10336716B2, “Thermodynamically stable crystal modification of 2-methyl-N-(5-methyl-1, 3, 4-oxadiazol-2-yl)-3-(methylsulfonyl)-4-(trifluoromethyl)benzamide” (Bayer CropScience Aktiengesellschaft, priority 2015, dated 2019)

Experiments:
Format in all cases: physicochemical
[1] = testing in practice of suspension formulations; details: suspension formulation, benzamide finely ground in solid form
Source text: The benzamide known for example from WO 2012/126932 A1 (example No. 2-145 in table 2 therein) has herbicidal properties and is suitable for the production of crop protection compositions which can be employed for weed control. However, it has been shown that the benzamide obtainable according to the disclosure of WO 2012/126932 A1 is not suitable for the preparation of user-friendly administration forms. User-friendly administration forms are, for example, suspension formulations in which the benzamide is present finely ground in solid form. […] The crystal growth can occur spontaneously or over a longer period and cannot be predicted.

[2] = wettability on mixing with water (first comparative experiment)
Source text: Moreover, the benzamide obtainable according to the disclosure of WO 2012/126932 A1 has the disadvantage that it can be less readily worked up, filtered, purified and wetted with solvents. […] These disadvantages are overcome by the provision of the thermodynamically stable benzamide according to the invention.

[3] = stability test: storage of oil dispersion; details: after several weeks of storage

| SMILES | crystal growth in suspension formulations [1] | wettability with solvents (in words) ([2]; solvents such as water and aqueous solvents) | clumping and precipitation of oil dispersion on storage [3] | wettability ([2]; after 1 minute on mixing with water) |
| --- | --- | --- | --- | --- |
| Cc1nnc(NC(=O)c2ccc(C(F)(F)F)c(S(C)(=O)=O)c2C)o1 [2-methyl-N-(5-methyl-1,3,4-oxadiazol-2-yl)-3-(methylsulfonyl)-4-(trifluoromethyl)benzamide] | leads to crystal growth in suspension formulations and consequently to clumping and precipitation | poorer wettability | – | – |
| Cc1nnc(NC(=O)c2ccc(C(F)(F)F)c(S(C)(=O)=O)c2C)o1 [crystal modification A, 2-methyl-N-(5-methyl-1,3,4-oxadiazol-2-yl)-3-(methylsulfonyl)-4-(trifluoromethyl)benzamide] | – | – | no signs of clumping and precipitation | 100% |
